Assay results as given in patent US20160220602A1, “USE OF CHINESE MEDICINE PREPARATION IN PREPARING DRUG FOR PREVENTING AND/OR TREATING CROHN'S DISEASE” (TASLY PHARMACEUTICAL GROUP CO., LTD., priority 2013, published 2016).

Tests used:
[1] = system: transgenic neutrophil fluorescent zebra fish Crohn's disease model; conditions: 10 μM in fish farm water
[2] = system: zebra fish Crohn's disease model; assay: Histopathology of intestinal tissue in zebra fish Crohn's disease model (H&E); type: in vivo; conditions: 10 μM in fish farm water
[3] = system: zebra fish Crohn's disease model established with TNBS; assay: Efficacy in zebra fish Crohn's disease model (intestinal area, diameter, therapeutic ratio); type: in vivo; conditions: 10 μM in fish farm water, 48 hours
Experimental: Meanwhile, the positive control group, blank control group, Crohn's disease model group and excipient control group were set in the research. In the positive control group, the prednisolone was finally at concentration of 10 μM in fish farm water. The enema excipient disclosed in Chinese patent (CN 1192787 C) was used in the excipient control group, including adding PEG-400 solutions containing tragacanth and potassium sorbate into the fish farm water in the volume ratio of 0.3%. Wherein, the PEG-400 solution was prepared following method: adding 1.5 g of tragacanth and 2 g of potassium sorbate (particle size of 150 μm) into 28ml PEG.
30 zebra fish were randomly given to each group. […] The image analysis software was used to analyze the pictures. Meanwhile, intestine mucosal thickness, intestinal diameter and intestinal area were observed carefully under the microscope and the intestinal diameter and intestinal area analyzed quantitatively. Therapeutic ratio of tested drug in zebra fish Crohn's disease was calculated in accordance with the intestinal area in each group. The calculation formula was present as follows: […]
Variance analysis was used for comparison among many groups and Dunnett's T test for comparison between two groups.

C[C@]12C=CC(=O)C=C1CC[C@@H]1[C@@H]2[C@@H](O)C[C@@]2(C)[C@H]1CC[C@]2(O)C(=O)CO [prednisolone]
Inflammation regression ratio (%) (Mean ± SE) [1]: 81±2.48% | Number of neutrophil (Mean ± SD) [1]: 20 ± 1 | Number of neutrophil, Ratio of the blank control group (Mean ± SE) [1]: 1.22 ± 0.03 | Intestinal histopathology (H&E) [2]: the intestinal mucosal histopathology was improved obviously | Intestinal area (Mean ± SD) [3]: 48646 ± 4685 | Intestinal area, Ratio of blank control group (Mean ± SE) [3]: 1.31 ± 0.04 | Intestinal diameter (Mean ± SD) [3]: 137 ± 11 | Intestinal diameter, Ratio of blank control group (Mean ± SE) [3]: 1.02 ± 0.03 | Therapeutic ratio (%) (Mean ± SE) ([3]; from intestinal area): 74±3.40%
